Structures are written as SMILES. Residues, ends and D or L forms follow the SMILES beside them. *: point of attachment. Cbz = O=C(OCc1ccccc1)*

Results on seven molecules are retold here after patent EP2518139A1, “Use of indirubin derivatives for producing pluripotent stem cells” (Universitätsklinikum Jena, priority 2011, dated 2012).

For assay [1], the system named is BMP- and TGFß-relative R-Smads. Description: Immunoblot of BMP- and TGFß-relative R-Smads in HeLa cells (TGFß or FCS stimulation). The class given is cell-based, human. Conditions: 24h, E738 (1µM), Bio (5µM), DM (1µM), Repsox (10µM); for P- and pan-Smads (R-Smads): TGFß (20ng/mL).
A further assay deals with Smad1/5/8. The assay is described as follows: Immunoblot of p-Smad1/5/8 and pan-Smad1/5/8 in HeLa cells. The class given is cell-based, human.
In a further assay the test system is p38. Conditions: reported by Zhu et al.; cited from earlier work.
Assay [2] concerns mono-, di- and poly-ubiquitins. Description: Immunoblot of ubiquitins in HeLa cells. The class given is cell-based, human. Conditions: BMP-stimulated HeLa, 24h; MG132 5µM, E738 (1µM). The protocol:
Western blot:: Cell extracts were homogenized in Urea-Lysis buffer (1mM EDTA,0.5% Triton X-100), 5mM NaF, 6M Urea, 1mM Na3VO4, 10µg/mL Pepstatin, 100µM PMSF and 3µg/mL Aprotinin in PBS). Enhanced chemiluminescence (ECL) Western blot analysis was performed. 20-40µg of total protein was resolved on 10% SDS-PAGE gels and immunoblotted with specific antibodies. Primary antibodies were incubated at a 1:1,000 dilution in TBS (pH 7.5) with 0.1% Tween-20 and 5% BSA/nonfat milk with gentle agitation overnight at 4°C. The proper secondary antibodies were incubated in TBS (pH 7.5) with 5% BSA/nonfat milk and 0.1 % Tween-20 at a 1:5,000 dilution for 1 h at room temperature.
Ubiquitin-proteasome degradation system is the major route to protein degradation. To identify if indirubin-induced degradation is conducted by proteasome, we utilized MG132, a general proteasome inhibitor, to characterize the role of proteasome in degradation. We found 5µM MG132 was sufficient to rescue the E738 mediated Smad1/5/8 […] 24h after treatment (Fig. 5E and 5F). […] Thus we interpreted that E738 might be able to promote degradation of polymerased ubiquintins through activating the formation of complexes with certain substrates, speculatively like Smad1/2/3/5/8, leading to accelerate the recycling of mono-ubiquitin, while MG132 blocked the degradation of these complexes and arrest such recycling. […]

Where [3] appears, read: BMP2 (100ng/mL), 24h, compound at 5µM.

As for `O=C1Nc2cc(Br)ccc2/C1=C1/Nc2ccccc2/C1=N\O` [BIO, 6-Bromo-indirubin-3'-oxim, reference compound], the “P- and pan-Smads (R-Smads)” value in assay [1] was “attenuated effects”. For the same molecule, in the assay with Smad1/5/8 (setting [3]), the “level of pan Smad1/5/8” value is “slightly decreased pan-Smad1/5/8” and the “phosphorylation (activation) of Smad1/5/8” value is reported as “clearly blocked the activation of Smad1/5/8”.
As for `C[C@@H]1C[C@@H]([C@H](O)CC2CC(=O)NC(=O)C2)C(=O)[C@@H](C)C1` [CHX, cyclohexamide, reference compound], the “signal of Smad1/5/8” value in the assay with Smad1/5/8 (BMP2, CHX (10µM), 24h) is given as “weaker signal of Smad1/5/8”. The “influence on the E738 induced degradation of Smad1/5/8” value with Smad1/5/8 (BMP2, mixture of E738 (1µM) and CHX 10µM, 24h) is reported as “no influence on the degradation”.
Take `O=C1Nc2ccccc2/C1=C1/Nc2ccccc2/C1=N\O` [E231, Indirubin-3'-oxim]: the “phosphorylation of p38” value in the assay on p38 is “can stimulate the phosphorylation of p38”. In addition, the “p-Smad1/5/8 at C-termini and pan-Smad1/5/8 levels” value with Smad1/5/8 (BMP2 (100ng/mL), 24h, compound at 1µM) is “slightly decreased”. In addition, in the assay on Smad1/5/8 (setting [3]), the “level of pan Smad1/5/8” value was “induced the reduction only partly” and the “phosphorylation (activation) of Smad1/5/8” value is on record as “strongly blocked the phosphorylation”.
Regarding `[Cl-].[Li+]` [LiCl, reference compound], the “BMP activated Smad1/5/8 and level of pan Smad1/5/8” value in the assay on Smad1/5/8 (BMP, LiCl (30mM), 24h) was “can attenuate BMP activated Smad1/5/8, but not change the level of pan Smad1/5/8”.
Regarding `CC(C)C[C@@H](C=O)NC(=O)[C@H](CC(C)C)NC(=O)[C@H](CC(C)C)NC(=O)OCc1ccccc1` [MG132, reference compound] (Cbz-Leu-Leu-Leu-aldehyde), the “mono-, di- and poly-ubiquitins” value in assay [2] is “significantly stabilized mono-, di- and poly-ubiquitins”. The “concentration sufficient to rescue the E738 mediated Smad1/5/8 ubiquitination” value in the assay with Smad1/5/8 (BMP, 24h after treatment) came to 5 µM. For the same molecule, in the assay with Smad1/5/8 (BMP, MG (5µM) with/without E738), the p-Smad1/5/8 result was “accumulation of p-Smad1/5/8 was observed”.
As to `Cc1cccc(-c2[nH]ncc2-c2ccc3ncccc3n2)n1` [Repsox], the “activation of both types of R-Smads” value in assay [1] (FCS 10%) was “only partly”. The “P- and pan-Smads (R-Smads)” value in assay [1] is listed as “inhibited TGFß-mediated activation of Smad3, but not Smad1/5/8 or total R-Smads protein”.
As for `C[S+]([O-])c1ccc(-c2nc(-c3ccncc3)c(-c3ccc(F)cc3)[nH]2)cc1` (stereo not shown) [SB203580, reference compound], the “level of pan Smad1/5/8” value in the assay with Smad1/5/8 (BMP, MAPK inhibitor alone or in combination with E738) was “neither alter the level of pan Smad1/5/8 alone, nor attenuate the E738-mediated degradation in combination with E738”.
